Source: patent US20180085330A1, “Dose Adjustment” (AbbVie Inc., priority 2016, published 2018)

Experiment: Drug interaction studies: pharmacokinetic parameters of coadministered drug in the presence of glecaprevir/pibrentasvir
Format: in vivo, human
Method: Drug interaction studies were performed with glecaprevir/pibrentasvir and other drugs that are likely to be coadministered and with drugs commonly used as probes for pharmacokinetic interactions.

[1] = EE/Levonorgestrel 20 μg/100 μg once daily, GLE/PIB 300/120 mg once daily
[2] = EE/Norgestimate 35 μg/250 μg once daily, GLE/PIB 300/120 mg once daily
[3] = dextromethorphan hydrobromide 30 mg single dose, GLE/PIB 300/120 mg once daily
[4] = EVG/COBI/FTC/TAF 150/150/200/10 mg once daily, GLE/PIB 300/120 mg once daily
[5] = sofosbuvir 400 mg once daily, GLE/PIB 400/120 mg once daily
[6] = losartan 50 mg single dose, GLE/PIB 300/120 mg once daily
[7] = lovastatin 10 mg once daily, GLE/PIB 300/120 mg once daily
[8] = omeprazole 20 mg single dose, GLE/PIB 300/120 mg once daily
[9] = raltegravir 400 mg twice daily, GLE/PIB 300/120 mg once daily
[10] = rilpivirine 25 mg once daily, GLE/PIB 300/120 mg once daily
[11] = simvastatin 5 mg once daily, GLE/PIB 300/120 mg once daily

## C#CC1(O)CC[C@H]2[C@@H]3CCC4=CC(=O)CC[C@@H]4[C@H]3CC[C@@]21CC (mixture of isomers) [Norgestrel]
[1]
  Central Value Ratio (90% CI) AUC: 1.68
  Central Value Ratio (90% CI) Cmax: 1.37
  Central Value Ratio (90% CI) Cmin: 1.77
[2]
  Central Value Ratio (90% CI) AUC: 1.63
  Central Value Ratio (90% CI) Cmax: 1.54
  Central Value Ratio (90% CI) Cmin: 1.75

## C#C[C@]1(O)CC[C@H]2[C@@H]3CCC4=CC(=NO)CC[C@@H]4[C@H]3CC[C@@]21CC (mixture of isomers) [Norgestromin]
[2]
  Central Value Ratio (90% CI) AUC: 1.44
  Central Value Ratio (90% CI) Cmin: 1.45

## Nc1nc(NC2CC2)c2ncn([C@H]3C=C[C@@H](CO)C3)c2n1 [Abacavir]
ABC/DTG/3TC 600/50/300 mg once daily, GLE/PIB 300/120 mg once daily
  Central Value Ratio (90% CI) Cmin: 1.31

## Cn1c(=O)c2c(ncn2C)n(C)c1=O [Caffeine]
Caffeine 100 mg single dose, GLE/PIB 300/120 mg once daily
  Central Value Ratio (90% CI) AUC: 1.35

## COc1ccc2c(c1)[C@]13CCCC[C@@H]1[C@H](C2)N(C)CC3 [Dextromethorphan]
[3]
  Central Value Ratio (90% CI) AUC: 0.75
  Central Value Ratio (90% CI) Cmax: 0.70

## COc1cc2c(cc1Cc1cccc(Cl)c1F)c(=O)c(C(=O)O)cn2[C@H](CO)C(C)C [Elvitegravir]
[4]
  Central Value Ratio (90% CI) AUC: 1.47
  Central Value Ratio (90% CI) Cmax: 1.36
  Central Value Ratio (90% CI) Cmin: 1.71

## C#C[C@]1(O)CC[C@H]2[C@@H]3CCc4cc(O)ccc4[C@H]3CC[C@@]21C [Ethinyl estradiol (EE), Ethinyl estradiol]
[1]
  Central Value Ratio (90% CI) AUC: 1.40
  Central Value Ratio (90% CI) Cmax: 1.30
  Central Value Ratio (90% CI) Cmin: 1.56
[2]
  Central Value Ratio (90% CI) AUC: 1.28
  Central Value Ratio (90% CI) Cmax: 1.31
  Central Value Ratio (90% CI) Cmin: 1.38

## C[C@@]1(F)[C@H](O)[C@@H](CO)O[C@H]1n1ccc(=O)[nH]c1=O [GS-331007]
[5]
  Central Value Ratio (90% CI) Cmin: 1.85

## CCCCc1nc(Cl)c(CO)n1Cc1ccc(-c2ccccc2-c2nn[nH]n2)cc1 [Losartan]
[6]
  Central Value Ratio (90% CI) AUC: 1.56
  Central Value Ratio (90% CI) Cmax: 2.51

## CC[C@H](C)C(=O)O[C@H]1C[C@@H](C)C=C2C=C[C@H](C)[C@H](CC[C@@H](O)C[C@@H](O)CC(=O)O)[C@H]21 [Lovastatin acid]
[7]
  Central Value Ratio (90% CI) AUC: 4.10
  Central Value Ratio (90% CI) Cmax: 5.73

## Cc1ncc2n1-c1ccc(Cl)cc1C(c1ccccc1F)=NC2 [Midazolam]
Midazolam 1 mg single dose, GLE/PIB 300/120 mg once dally
  Central Value Ratio (90% CI) AUC: 1.27

## COc1ccc2[nH]c([S+]([O-])Cc3ncc(C)c(OC)c3C)nc2c1 (stereo not drawn) [Omeprazole]
[8]
  Central Value Ratio (90% CI) AUC: 0.79
  Central Value Ratio (90% CI) Cmax: 0.57

## Cc1nnc(C(=O)NC(C)(C)c2nc(C(=O)NCc3ccc(F)cc3)c(O)c(=O)n2C)o1 [Raltegravir]
[9]
  Central Value Ratio (90% CI) AUC: 1.47
  Central Value Ratio (90% CI) Cmax: 1.34
  Central Value Ratio (90% CI) Cmin: 2.64

## Cc1cc(/C=C/C#N)cc(C)c1Nc1ccnc(Nc2ccc(C#N)cc2)n1 [Rilpivirine]
[10]
  Central Value Ratio (90% CI) AUC: 1.84
  Central Value Ratio (90% CI) Cmax: 2.05
  Central Value Ratio (90% CI) Cmin: 1.77

## CCC(C)(C)C(=O)O[C@H]1C[C@@H](C)C=C2C=C[C@H](C)[C@H](CC[C@@H](O)C[C@@H](O)CC(=O)O)[C@H]21 [Simvastatin acid]
[11]
  Central Value Ratio (90% CI) AUC: 4.48
  Central Value Ratio (90% CI) Cmax: 10.7

## CC(C)OC(=O)[C@H](C)N[P@](=O)(OC[C@H]1O[C@@H](n2ccc(=O)[nH]c2=O)[C@](C)(F)[C@@H]1O)Oc1ccccc1 [Sofosbuvir]
[5]
  Central Value Ratio (90% CI) AUC: 2.25
  Central Value Ratio (90% CI) Cmax: 1.66
